How the values were obtained:
Type in all cases: in vivo, Whistar rats
[1] = test system: normal rats, not subjected previously to a biotin poor diet; test: Experimental test 2, lot II: composition of hair keratin of normal rats fed an enriched diet; details: 150 days of treatment
From the text: (§1) The elective stimulating action has also been verified on rats, performed especially by the gelatin cystine, in the keratinization processes of the hairy structures, verifying the average content of sulphur and cystine of the hair of rats kept on a normal diet and respectively of rats kept on a biotin poor diet, fed respectively only gelatin, only cystine and the association of gelatin-cystine both in the form of mechanical mixture in hard capsules, and in the form melted in soft spherules.
(§2) 110 Whistar rats of both sexes were employed (55 males plus 55 females) of the average weight of 150 g±9, divided in two lots of respectively 60 (lot I) and 50 (lot II) rats each. Following the Kalopissis and Manoussos methodology already quoted in test 1, 50 rats of lot I were kept on a biotin poor diet for about 40 days until the appearance of an evident seborrhoic clinical condition was induced, while the remaining 10 served as controls. After having obtained the desired clinical condition with the appearance of seborrhoea and loss of hair in several zones, the 60 rats were divided into six groups of 10 rats each and treated as follows:
The 50 rats of the second lot (normal rats, not subjected previously to a biotin poor diet), divided into five groups of 10 rats each, have been fed respectively:
The quantity of the feed placed in the cages was calculated in such a way that the rats would ingest the same quantity per kg of cystin, FU gelatin or gelatin-cystine already described above.
After 150 days of treatment the rats, under ether anaesthesia, were partially depilated with a razor.
(§3) A part of the hair (about 100 mg) of all the animals of the two groups, thoroughly washed with alcohol and ethyl ether and dried, are used for the determination of the total sulphur carried out by means of titration, according to the previously mentioned McDonald methodology.
(§4) After having hydrolyzed the hair of all the animals (about 800 mg) previously washed as already described, the quantity of cystine was determined using an autoanalyzer.
(§5) The extraction of the total keratins of the hairs was carried out using the urea-thioglycolate method as described in Gillespie J. M., Reis P. J. and Schinckel P. G. (1964) Aust. J. Biol. Sci. 17, 548.
(§6) After determining from one portion the total keratin (total proteins), the keratin fraction of high sulphur content is separated through alkylation with iodo acetate, dialysis and precipitation of the protein of low sulphur content with zinc acetate at pH 6. The total sulphur was determined on the protein fraction "rich in sulphur" according to the already mentioned McDonald methodology.

[2] = test system: rats kept on a biotin poor diet; test: Experimental test 1: skin total lipids and hair sulphur content of rats on a biotin free diet with additives
From the text: According to the invention in fact the intimate distribution of the cystine within the mass of "soft" gelatin ensures a particularly favorable oral absorption, so that it is possible to reduce the doses of active substances with respect to the doses established by the prior art for the indicated pharmaceutical use. […] It is in fact known that the alimentary insufficiency of biotin induces, in the rat, the formation of a seborrhoic clinical condition, characterized by the increase of the sebaceous secretion and by the fall of hair.
In order to have a direct comparison, said rats have been successively treated, in different lots, -with diets to which was added respectively gelatin, cystine, gelatin-cystine in mechanical mixture and gelatin-cystine in soft spherules.
60 Whistar rats were employed of both sexes (30 males and 30 females) of the average weight of 150 g±9. Following the Kalopissis et al methodology (U.S. patent No. 3629452) 50 rats were kept on a biotin free diet for about 40 days until an evident seborrhoic clinical condition had developed, while the remaining 10 served as controls. After obtaining the desired clinical condition with the development of seborrhoea and loss of hair in various zones, the 50 rats were subdivided into five groups of 10 rats each and treated as follows: • 1st group: biotin free diet added with cystine; • 2nd group: biotin free diet added with gelatin; • 3rd group: biotin free diet added with cystine and gelatin in mechanical mixture; • 4th group: biotin free diet added with the mixture of gelatin/cystine melted in soft spherules; • 5th group: biotin free diet; • 6th group: control.
The diets were administered weekly in the cages of the rats in accurately weighed quantity so that the rats, kept in single cages, would ingest together with the feed, respectively: • 1st group: 84 mg per kg a week of cystine; • 2nd group: 203 mg per kg a week of gelatin from collagen; • 3rd group: 84 mg per kg a week of cystine and 203 mg per kg a week of gelatin; • 4th group: 280 mg per kg a week of the melted mixture of gelatin/cystine comprising 79.8 mg of cystine and 200.2 mg of gelatin.
After three weeks of treatment and after taking about 200 mg of hairs per rat, all the animals, included the controls, were sacrificed in a chloroform saturated environment in order to control their skin total lipids and in order to carry out possible histological and bioptic examinations. […]
The content of the total lipids was determined gravimetrically by the difference in weight of the sample before and after the extraction in a Soxhlet with acetone for 10 days and further drying out in vacuum over P205 and paraffin for 24 hours.

biotin poor rats = test: Experimental test 2, lot I: composition of hair keratin (sulphur, cystine, proteins) of biotin poor rats
From the text: as §1, §2
The diets prepared specifically by a specialized firm were administered weekly in the cages of the rats, in accurately weighed quantity so that the rats, kept in single cages, would ingest together with the feed, respectively:
After six weeks of treatment and after having taken about 1 gof hair per rat, all the animals included the controls were sacrificed in a chloroform saturated atmosphere.
as §3, §4, §5, §6

[3] = in the biotin-poor rats, oral, P<0.05
[4] = hair of biotin poor rats, six weeks of treatment

N[C@@H](CSSC[C@H](N)C(=O)O)C(=O)O [Levo-cystine]
"Sulphur rich" keratin % [1]: 25.9±0.5° % | Cystine content % [1]: 13.8±0.6° % | Sulphur contained in the "sulphur rich keratin" % [1]: 5.1±0.2° % | Sulphur content % [1]: 3.6±0.1° % | Total lipides % ([2]; dorsal skin, gravimetric after acetone extraction, biotin poor diet plus additive, three weeks of treatment, °=P<0.05 versus group VI (controls)): 38.1±2.987° % | increase of the total sulphur of the hair [2, 3]: about 7% | reduction of the total lipids of the skin [2, 3]: about 15% | Sulphur content (×g hair, %) ([2]; total sulphur by titration, percentage of dried weight of hair, biotin poor diet plus additive, three weeks of treatment): 2.48±0.066° % | "Sulphur rich" proteic fraction % (biotin poor rats; [4]): 20±1% | Sulphur contained in the "sulphur rich" proteic fraction, % (biotin poor rats; [4]): 3.9±0.05% | Sulphur content % (biotin poor rats; [4]): 2.48±0.07° % | Cystine content % (biotin poor rats; hair of biotin poor rats, six weeks of treatment, g/100 g of hairs, autoanalyzer after hydrolysis): 9.3±0.6% | Total proteins % (biotin poor rats; total keratins of hair, urea-thioglycolate extraction, biotin poor rats, six weeks): 90±1%
